The results in this text go back to US20070191364A1, “AMINOPIPERIDINE DERIVATIVES, PREPARATION THEREOF AND THERAPEUTIC USE THEREOF” (SANOFI-AVENTIS, priority 2004, published 2007).

Data set [1] deals with T1, human MC4 receptor (Homo sapiens, UniProt P32245).
T1 construct: host or cells: CHO-K1
The data set can be described thus: Functional agonist assay: cAMP formation in CHO-K1 cells. It is filed as cell-based. Particulars: 1 hour incubation, read-out: EC50 with respect to the MC4 receptor. As to the method: (§1) A functional assay is used to differentiate between the agonist activity and the antagonist activity. For this, the formation of cyclic adenosine monophosphate (cAMP) generated by activation of the MC3 receptor or of the MC4 receptor is assayed.
CHO-K1 cells, expressing the human MC4 receptor at a moderate density (Euroscreen), are seeded into DMEM/Nutrient Mix F12 culture medium (Gibco/BR1) containing 10% of foetal calf serum, 0.5% sodium pyruvate, 1% L-glutamine, 1% non-essential amino acids, 200 mg/l hygromycin B and 0.5% PenStrep, these products being provided by Gibco/BR1, except the calf serum (Biowhittaker) and hygromycin B (Sigma).
(§2) The compounds to be tested (diluted in 10% DMSO), in an amount of 10 μl at a concentration of 10 times the final concentration, are added to the plates of cells (final volume=100 μl/well). After incubation for 1 hour (37° C., 5% CO2), the amount of cAMP is assayed using Tropix kits (Appelera) according to the supplier's documentation. The intrinsic activity of the compounds is calculated by comparing the stimulation of cAMP by these compounds to the stimulation induced by 30 nM of NDP[…]MSH (maximum of 100%). The EC50 value for the compounds corresponds to the concentration which produces 50% of the maximum stimulation obtained with this compound.
In general terms: Cyclic AMP is a second messenger, typically raised through Gs and lowered through Gi signalling.

A further data set concerns the target T2, human MC3 receptor (Homo sapiens, UniProt P41968).
T2 construct: expressed in transfected cells; host or cells: CHO(dhfr-)
In words: Functional agonist assay: cAMP formation in CHO(dhfr-) cells. It is filed as cell-based. Particulars: 1 hour incubation, read-out: EC50 with respect to the MC3 receptor. The procedure:
as §1
CHO(dhfr-) cells expressing the human MC3 receptor are seeded into MEM Eagle culture medium (Sigma) containing 10% of dialysed calf serum, 1% L-glutamine, 1% sodium pyruvate, 20 mg/500 ml L-proline, 0.3 mg/ml Geneticin and 0.5% PenStrep, these products being provided by Gibco/BR1, except for the dialysed calf serum (Cambrex) and the L-proline (Sigma).
as §2

In data set [2] the target is T1, human MC4 receptor. The data set can be described thus: Affinity assay: displacement of [125I]-[Nle4,D-Phe7]-α-MSH binding to membranes of CHO-K1 cells (SPA). Conditions: radioligand displacement, 100 pM [125I]-NDP-α-MSH, 6 h; read-out: IC50 with respect to the MC4 receptor. The procedure: This affinity assay is carried out by measuring the binding of [^125I]-[Nle^4-D-Phe^7]-[…]-MSH to cell membranes. The displacement of this radioligand is used to identify inhibitors of the specific binding to recombinant melanocortin receptors.
For this assay, membranes prepared from CHO-K1 cells expressing the human MC4 receptor at high density (Euroscreen) or membranes, that were purchased (Perkin Elmer Life Sciences, Receptor Biology), of HEK-293 cells expressing hMC3 receptors were used. CHO-K1 cells transfected with the hMC4 receptor gene (Euroscreen) are seeded into DMEM/Nutrient Mix F12 culture medium containing 10% foetal calf serum (Biowhittaker), 1% sodium pyruvate, 1% L-glutamine, 1% non-essential amino acids, 0.4 mg/ml geneticin (G418) and 0.5% PenStrep, these products being provided by Gibco/BR1, except the calf serum. At 80% confluency, the cells are scraped off and the cell pellets are frozen at −80° C. […]
[^125I]-[Nle^4, D-Phe^7]-[…]-MSH is diluted in binding buffer+0.2% BSA. […] The nonspecific binding is defined by NDP-[…]MSH at 10^−7 M. The total binding is measured by the number of counts per minute in the presence of the radioligand alone. […]
For orientation: Displacement assays read how much labelled ligand stays bound in the presence of the test substance.

Structures can show the parent of a compound that is named as a salt.

T1 sequence (P32245 whole entry): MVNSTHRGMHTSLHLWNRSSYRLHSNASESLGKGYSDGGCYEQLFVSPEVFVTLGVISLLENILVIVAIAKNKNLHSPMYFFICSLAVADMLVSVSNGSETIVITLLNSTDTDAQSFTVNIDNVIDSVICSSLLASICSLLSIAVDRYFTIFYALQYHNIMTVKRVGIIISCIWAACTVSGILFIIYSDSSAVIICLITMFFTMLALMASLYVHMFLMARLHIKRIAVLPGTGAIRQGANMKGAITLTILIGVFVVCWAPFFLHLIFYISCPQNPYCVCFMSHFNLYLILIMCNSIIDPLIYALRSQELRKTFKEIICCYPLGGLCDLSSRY
T2 sequence (P41968 whole entry): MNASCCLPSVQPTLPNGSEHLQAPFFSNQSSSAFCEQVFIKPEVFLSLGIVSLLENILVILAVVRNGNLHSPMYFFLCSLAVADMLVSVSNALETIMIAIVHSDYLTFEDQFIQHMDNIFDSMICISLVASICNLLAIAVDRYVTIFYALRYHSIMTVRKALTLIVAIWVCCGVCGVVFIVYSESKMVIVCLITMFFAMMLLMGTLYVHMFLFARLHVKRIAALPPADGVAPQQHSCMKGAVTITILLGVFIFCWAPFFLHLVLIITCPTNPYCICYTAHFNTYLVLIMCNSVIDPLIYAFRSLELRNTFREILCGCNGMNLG

In general, EC50 refers to the midpoint of the concentration-response curve. Turning to `CCN(CC)C(=O)N(C1CCCCC1)C1CCN(C(=O)[C@@H](Cc2ccc(Cl)cc2)NC2CCNCC2)CC1` [Compound 1, N-[1-(4-chloro-N-piperidin-4-yl-D-phenylalanyl)piperidin-4-yl]-N-cyclohexyl-N′,N′-diethylurea], the values for the EC50 on human MC4 receptor [1] and on human MC3 receptor were 80 nM and 590 nM, respectively. The term melting point denotes the temperature, or range, at which the solid turns liquid. Molecule `CCN(CC)C(=O)N(C1CCCCC1)C1CCN(C(=O)[C@@H](Cc2ccc(Cl)cc2)NC2CCNCC2)CC1` (as salt: HCl) [Compound 1, N-[1-(4-chloro-N-piperidin-4-yl-D-phenylalanyl)piperidin-4-yl]-N-cyclohexyl-N′,N′-diethylurea] had a melting point greater than 220 °C. Molecule `CCN(CC)C(=O)N(C1CCCCC1)C1CCN(C(=O)[C@@H](Cc2ccc(Cl)cc2)NC2CCC(N)CC2)CC1` (stereo partly drawn) (as salt: HCl) [Compound 2, N-{1-[N-(4-aminocyclohexyl)-4-chloro-D-phenylalanyl]piperidin-4-yl}-N-cyclohexyl-N′,N′-diethylurea hydrochloride] gave a melting point of 195 °C. A word on the IC50: it is the concentration needed to halve the response being measured. As for `CCN(CC)C(=O)N(C1CCCCC1)C1CCN(C(=O)[C@@H](Cc2ccc(Cl)cc2)NC2CCC(N)CC2)CC1` (stereo partly drawn) [Compound 2, N-{1-[N-(4-aminocyclohexyl)-4-chloro-D-phenylalanyl]piperidin-4-yl}-N-cyclohexyl-N′,N′-diethylurea hydrochloride], the concentration for a half-maximal effect (EC50) on human MC4 receptor [1] stood at 30 nM; at human MC3 receptor it was 370 nM. In addition, the IC50 at human MC4 receptor [2] amounted to 300 nM.
